This note sets out measurements from BindingDB's records for doi:10.1002/cbic.201100121 (Mcmaster University, 2011).

This assay deals with T1, Homoserine kinase (Escherichia coli (strain K12), UniProt P00547).
T1 sequence (P00547 whole entry): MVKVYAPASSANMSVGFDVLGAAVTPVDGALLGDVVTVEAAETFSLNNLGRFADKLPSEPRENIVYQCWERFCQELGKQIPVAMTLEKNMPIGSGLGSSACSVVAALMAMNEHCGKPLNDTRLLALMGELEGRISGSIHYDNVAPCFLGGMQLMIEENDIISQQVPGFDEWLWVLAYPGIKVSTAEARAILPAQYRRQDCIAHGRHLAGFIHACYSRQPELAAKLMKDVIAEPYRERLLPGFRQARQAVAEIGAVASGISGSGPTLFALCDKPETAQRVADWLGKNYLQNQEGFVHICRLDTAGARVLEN
Description: Enzyme Inhibition Assay. Conditions: pH 7.5; 37 °C. An excerpt:
The phosphorylation of L-Hse was monitored by coupling the formation of ADP with pyruvate kinase and lactate dehydrogenase (PK/LDH). The resulting oxidation of NADH was monitored at 340 nm by using a SpectraMax plate reader in a 96-well format.
For `CC1NN(c2ccccc2)c2nc(C(F)(F)F)cc(O)c21` (stereo unspecified) [Thr1 inhibitor, 6], the Ki stood at 8.6 µM. For the compound `CC(C)Cc1nc2sc3c(c2c(=O)o1)CCCCC3` [Thr1 inhibitor, 5], affinity was put at a Ki of 35.8 µM. Take `O=C1OC2C=CCC=C2C(=O)C1Cc1c(O)c2ccccc2oc1=O` (stereo unspecified) [Thr1 inhibitor, 4]: affinity was put at a Ki of 0.46 µM. The figure for `O=C1C(O)c2cc(O)c(O)cc2OC1c1ccc(O)c(O)c1` (stereo unspecified) is 27.1 µM; for `CC(=O)C(C#N)C(=O)Nc1cc(Br)ccc1Br` (stereo unspecified) it is 12 µM. In the case of `C=CC(=O)c1ccc2ccccc2c1` [Thr1 inhibitor, 1], the affinity, expressed as Ki, was 32 µM.

A word on the Ki: it is a measure of affinity in units of concentration, obtained from inhibition or displacement. The low end stands for a stronger hold on the target, the high end for a looser hold on the target.
